Common to all, as to experiment: relative viability (nuclei count vs DMSO), 5 days (fraction); higher = more cells survive
Compound in the test “CX-5461 + Trametinib”: Cc1cnc(CNC(=O)c2c(=O)c3ccc(N4CCCN(C)CC4)nc3n3c2sc2ccccc23)cn1 [CX-5461] + CC(=O)Nc1cccc(-n2c(=O)n(C3CC3)c(=O)c3c(Nc4ccc(I)cc4F)n(C)c(=O)c(C)c32)c1 [Trametinib] (partner 0.02 µM)
The essentials:
(§1)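 After 5 days of treatment, lung cancer cells in 1536-well plates were fixed and stained in a single step (final 0.05% Triton X-100, 1% formaldehyde, 1 ug/ml Hoechst) and their nuclei counted on 4× images. Treatment had been applied by pin tool the day after seeding as one drug alone or as a fixed anchor-drug dose with five library-drug doses (not always all listed) in √10 steps. Relative viability is the nuclei count of treated wells divided by that of vehicle wells, and values are medians of duplicate plates.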

Compound in the test “CX-5461 + Alpelisib”: Cc1cnc(CNC(=O)c2c(=O)c3ccc(N4CCCN(C)CC4)nc3n3c2sc2ccccc23)cn1 [CX-5461] + Cc1nc(NC(=O)N2CCC[C@H]2C(N)=O)sc1-c1ccnc(C(C)(C)C(F)(F)F)c1 [Alpelisib] (partner 2 µM)
The essentials: as §1

Compound in the test “IMD-0354 + Vorinostat”: O=C(Nc1cc(C(F)(F)F)cc(C(F)(F)F)c1)c1cc(Cl)ccc1O [IMD-0354] + O=C(CCCCCCC(=O)Nc1ccccc1)NO [Vorinostat] (partner 1 µM)
The essentials:
as §1

Compound in the test “CX-5461 + Phenformin”: Cc1cnc(CNC(=O)c2c(=O)c3ccc(N4CCCN(C)CC4)nc3n3c2sc2ccccc23)cn1 [CX-5461] + N=C(N)NC(=N)NCCc1ccccc1 [Phenformin] (partner 250 µM)
The method, boiled down: as §1

Regarding RERF-LC-KJ, the relative viability in the test with CX-5461 + Trametinib (first compound 0.01 µM) worked out at 0.853; with CX-5461 + Trametinib (first compound 0.03162 µM), 0.908; in the test with CX-5461 + Trametinib (first compound 0.1 µM) it was 0.694; with CX-5461 + Trametinib (first compound 0.3162 µM) it was 0.89; in the test with CX-5461 + Trametinib (first compound 1 µM), 0.644; with CX-5461 + Alpelisib (first compound 0.01 µM) it was 0.832. Besides, the relative viability in the test with CX-5461 + Alpelisib (first compound 0.03162 µM) turned out to be 0.951; with CX-5461 + Alpelisib (first compound 0.1 µM), 0.933; with CX-5461 + Alpelisib (first compound 0.3162 µM) it was 0.754; in the test with CX-5461 + Alpelisib (first compound 1 µM), 0.773; with IMD-0354 + Vorinostat (first compound 0.04 µM), 0.775; in the test with IMD-0354 + Vorinostat (first compound 0.1265 µM), 0.677. For the same cell line, the relative viability is 0.542 with IMD-0354 + Vorinostat (first compound 0.4 µM); 0.167 with IMD-0354 + Vorinostat (first compound 1.265 µM); 0.172 with IMD-0354 + Vorinostat (first compound 4 µM); 0.448 with CX-5461 + Phenformin (first compound 0.01 µM); 0.457 with CX-5461 + Phenformin (first compound 0.03162 µM); 0.292 with CX-5461 + Phenformin (first compound 0.1 µM). Further, the relative viability is 0.41 with CX-5461 + Phenformin (first compound 0.3162 µM) and 0.386 with CX-5461 + Phenformin (first compound 1 µM).

As for SK-LU-1, the relative viability with CX-5461 + Trametinib (first compound 0.01 µM) stood at 0.503; in the test with CX-5461 + Trametinib (first compound 0.03162 µM) it was 0.439; with CX-5461 + Trametinib (first compound 0.1 µM), 0.49; with CX-5461 + Trametinib (first compound 0.3162 µM), 0.506; with CX-5461 + Trametinib (first compound 1 µM) it was 0.345; with CX-5461 + Alpelisib (first compound 0.01 µM) it was 1.08. Also, the relative viability was 1.35 with CX-5461 + Alpelisib (first compound 0.03162 µM); 0.724 in the test with CX-5461 + Alpelisib (first compound 0.1 µM); 0.945 with CX-5461 + Alpelisib (first compound 0.3162 µM); 0.332 in the test with CX-5461 + Alpelisib (first compound 1 µM); 0.796 in the test with IMD-0354 + Vorinostat (first compound 0.04 µM); 0.597 with IMD-0354 + Vorinostat (first compound 0.1265 µM). Also, the relative viability turned out to be 0.623 with IMD-0354 + Vorinostat (first compound 0.4 µM); 0.194 in the test with IMD-0354 + Vorinostat (first compound 1.265 µM); 0.264 with IMD-0354 + Vorinostat (first compound 4 µM); 0.615 in the test with CX-5461 + Phenformin (first compound 0.01 µM); 0.545 in the test with CX-5461 + Phenformin (first compound 0.03162 µM); 0.397 in the test with CX-5461 + Phenformin (first compound 0.1 µM). The relative viability in the test with CX-5461 + Phenformin (first compound 1 µM) was 0.229.

Consider SK-MES-1, for which the relative viability with CX-5461 + Trametinib (first compound 0.01 µM) came to 0.641; with CX-5461 + Trametinib (first compound 0.03162 µM) it was 0.595; in the test with CX-5461 + Trametinib (first compound 0.1 µM), 0.562; with CX-5461 + Trametinib (first compound 0.3162 µM) it was 0.533; with CX-5461 + Trametinib (first compound 1 µM) it was 0.44; in the test with CX-5461 + Alpelisib (first compound 0.01 µM), 0.886. In addition, the relative viability amounted to 0.964 with CX-5461 + Alpelisib (first compound 0.03162 µM); 1.08 in the test with CX-5461 + Alpelisib (first compound 0.1 µM); 0.952 with CX-5461 + Alpelisib (first compound 0.3162 µM); 0.522 in the test with CX-5461 + Alpelisib (first compound 1 µM); 1.4 with IMD-0354 + Vorinostat (first compound 0.04 µM); 1.09 with IMD-0354 + Vorinostat (first compound 0.1265 µM). Moreover, the relative viability with IMD-0354 + Vorinostat (first compound 0.4 µM) turned out to be 0.693; with IMD-0354 + Vorinostat (first compound 1.265 µM) it was 0.305; in the test with IMD-0354 + Vorinostat (first compound 4 µM), 0.192; with CX-5461 + Phenformin (first compound 0.01 µM), 0.662; with CX-5461 + Phenformin (first compound 0.03162 µM), 0.645; with CX-5461 + Phenformin (first compound 0.1 µM) it was 0.452. The relative viability was determined as 0.625 in the test with CX-5461 + Phenformin (first compound 0.3162 µM) and 0.313 with CX-5461 + Phenformin (first compound 1 µM).

Regarding SW 1573, the relative viability was found to be 0.496 in the test with CX-5461 + Trametinib (first compound 0.01 µM); 0.513 with CX-5461 + Trametinib (first compound 0.03162 µM); 0.126 with CX-5461 + Trametinib (first compound 0.1 µM); 0.566 with CX-5461 + Trametinib (first compound 0.3162 µM); 0.16 with CX-5461 + Trametinib (first compound 1 µM); 0.733 with CX-5461 + Alpelisib (first compound 0.01 µM). The relative viability in the test with CX-5461 + Alpelisib (first compound 0.03162 µM) was determined as 0.788; in the test with CX-5461 + Alpelisib (first compound 0.1 µM), 0.91; with CX-5461 + Alpelisib (first compound 0.3162 µM), 0.822; with CX-5461 + Alpelisib (first compound 1 µM), 0.36; in the test with IMD-0354 + Vorinostat (first compound 0.04 µM) it was 1.08; with IMD-0354 + Vorinostat (first compound 0.1265 µM) it was 0.676. Moreover, the relative viability in the test with IMD-0354 + Vorinostat (first compound 0.4 µM) is 0.429; in the test with IMD-0354 + Vorinostat (first compound 1.265 µM) it was 0.158; in the test with IMD-0354 + Vorinostat (first compound 4 µM), 0.0883; in the test with CX-5461 + Phenformin (first compound 0.01 µM) it was 0.421; with CX-5461 + Phenformin (first compound 0.03162 µM), 0.369; in the test with CX-5461 + Phenformin (first compound 0.1 µM), 0.151. Also, the relative viability with CX-5461 + Phenformin (first compound 0.3162 µM) stood at 0.303; in the test with CX-5461 + Phenformin (first compound 1 µM), 0.121.

Values taken from the supplement of paper PMC10307832.
